Tested on: sulfur-oxidizing microbes
Assay: Water toxicity detection with sulfur particles: electrical conductivity difference between inflow and outflow water, continuous reaction container
Type: cell-based, Thiobacillus
Settings: 30 ppm test substance in the sample; EBCT 17 minute; 30° C.; ratio 0~1, about 1 = no toxicity, about 0 = high toxicity; 0.3 corresponds to issuing alarm
Method: When the microbes attached around the sulfur particles are grown in the reaction container 130 of which conditions such as temperature is constant, the sulfur is oxidized at a constant speed. The following formula expresses a reaction of generation of sulfate ions and hydrogen ions in the processes. S+H2O+1.5O2−>SO4^2−+2H^+ΔG°′=−587.1 kJ/reaction
Referring to the above formula, the sulfur particles react with the microbes, the inflow water, and the oxygen in the reaction container 130 to generate a predetermined amount of sulfate ions. In case of non-toxic outflow water, the amount of sulfate ions thereof is increased by a predetermined amount in comparison with the inflow water. Since a degree of alkali in a river water is generally low, pH of the outflow water is decreased in comparison with the inflow water.
However, in case of the inflow water containing toxic substances, a degree of activation of the microbes attached around the sulfur particles is lowered, so that the sulfur particles can not be oxidized. […]
The reaction container is filled with a 30 mL of sulfur particles. […] While an empty bed contact time (EBCT) of the inflow water is changed among 7.1, 8.3, 10.0, 12.5, and 16.7 minutes, the pH and electrical conductivity of the inflow water and the outflow water are measured. The EBCT is calculated by dividing a volume (30 mL) of the sulfur particles with a flow rate. […]

Substance: hexavalent chrome
- ECDifference ratio: 0.3

Source: US8569045B2, “Water toxicity detecting apparatus and method using sulfur particles” (University-Industry Cooperation Foundation, Kangwon …, priority 2007, dated 2013)
